Results as given in the CheMixHub ionic liquid set.

Assay: xn = mol fraction of the nth substance listed

CCCCO + CCCC[n+]1ccn(C)c1.O=S(=O)([O-])C(F)(F)F
100 kPa, x2 = 0
Details	viscosity [mPa·s]
298.15 K	2.61
303.15 K	2.31
308.15 K	2.07
313.15 K	1.85
318.15 K	1.66
323.15 K	1.5

[Cl][Al]([Cl])[Cl] + CCCC[n+]1ccn(C)c1.[Cl-]
Details	electrical conductivity [S/m]	viscosity [mPa·s]
270.1 K, 101.3 kPa, x2 = 0.5263	0.158	–
270.1 K, 101.3 kPa, x2 = 0.5556	0.0827	–
275.6 K, 101.3 kPa, x2 = 0.3333	0.36	–
275.6 K, 101.3 kPa, x2 = 0.3636	0.38	–
275.6 K, 101.3 kPa, x2 = 0.4	0.412	–
275.6 K, 101.3 kPa, x2 = 0.4348	0.408	–
276.1 K, 101.3 kPa, x2 = 0.4762	0.415	–
276.1 K, 101.3 kPa, x2 = 0.5	0.423	–
276.1 K, 101.3 kPa, x2 = 0.5556	0.135	–
281.1 K, 101.3 kPa, x2 = 0.5263	0.328	–
281.1 K, 101.3 kPa, x2 = 0.5556	0.189	–
284.65 K, 101.3 kPa, x2 = 0.3333	0.578	–
284.65 K, 101.3 kPa, x2 = 0.3636	0.588	–
284.65 K, 101.3 kPa, x2 = 0.4	0.582	–
284.65 K, 101.3 kPa, x2 = 0.4348	0.599	–
284.65 K, 101.3 kPa, x2 = 0.4762	0.608	–
284.65 K, 101.3 kPa, x2 = 0.5	0.616	–
293.65 K, 101.3 kPa, x2 = 0.3333	0.774	–
293.65 K, 101.3 kPa, x2 = 0.3636	0.803	–
295.65 K, 101.3 kPa, x2 = 0.4	0.855	–
295.65 K, 101.3 kPa, x2 = 0.4348	0.911	–
295.65 K, 101.3 kPa, x2 = 0.4762	0.883	–
295.65 K, 101.3 kPa, x2 = 0.5	0.916	–
296.65 K, 101.3 kPa, x2 = 0.5263	0.639	–
296.65 K, 101.3 kPa, x2 = 0.5556	0.417	–
298.15 K, 101 kPa, x1 = 0.545	0.98	28.92
303.15 K, 101 kPa, x1 = 0.5238	–	26.36
303.15 K, 101 kPa, x1 = 0.5653	–	22.62
303.15 K, 101 kPa, x1 = 0.6429	–	17.68
303.15 K, 101 kPa, x1 = 0.643	1.06	17.7
303.15 K, 101 kPa, x1 = 0.667	1.05	–
303.15 K, 101.3 kPa, x2 = 0.3333	1.02	–
304.15 K, 101.3 kPa, x2 = 0.3333	1.05	–
304.65 K, 101.3 kPa, x2 = 0.5263	0.868	–
304.65 K, 101.3 kPa, x2 = 0.5556	0.586	–
305.15 K, 101.3 kPa, x2 = 0.3333	1.07	–
305.15 K, 101.3 kPa, x2 = 0.4	1.14	–
305.15 K, 101.3 kPa, x2 = 0.5	1.25	–
306.15 K, 101.3 kPa, x2 = 0.3636	1.16	–
306.15 K, 101.3 kPa, x2 = 0.4348	1.22	–
308.15 K, 101 kPa, x1 = 0.615	1.23	16.72
315.15 K, 101.3 kPa, x2 = 0.4762	1.57	–
315.15 K, 101.3 kPa, x2 = 0.5263	1.2	–
315.15 K, 101.3 kPa, x2 = 0.5556	0.851	–
316.15 K, 101.3 kPa, x2 = 0.3333	1.41	–
316.15 K, 101.3 kPa, x2 = 0.4	1.5	–
316.15 K, 101.3 kPa, x2 = 0.5	1.68	–
318.15 K, 101 kPa, x1 = 0.667	1.5	11.35
318.15 K, 101.3 kPa, x2 = 0.3636	1.54	–
318.15 K, 101.3 kPa, x2 = 0.4348	1.69	–
322.15 K, 101.3 kPa, x2 = 0.3333	1.62	–
323.15 K, 101 kPa, x1 = 0.5	–	16.06
323.15 K, 101 kPa, x1 = 0.6296	–	11.12
324.15 K, 101.3 kPa, x2 = 0.5	1.98	–
324.15 K, 101.3 kPa, x2 = 0.5263	1.5	–
324.15 K, 101.3 kPa, x2 = 0.5556	1.09	–
325.15 K, 101.3 kPa, x2 = 0.4	1.87	–
326.15 K, 101.3 kPa, x2 = 0.3636	1.82	–
326.15 K, 101.3 kPa, x2 = 0.4348	1.95	–
328.15 K, 101 kPa, x1 = 0.643	1.88	9.76
331.15 K, 101.3 kPa, x2 = 0.4762	2.25	–
332.15 K, 101.3 kPa, x2 = 0.3333	2	–
333.15 K, 101 kPa, x1 = 0.5238	–	12.28
333.15 K, 101 kPa, x1 = 0.6001	–	9.9
333.15 K, 101 kPa, x1 = 0.615	2.16	9.5
333.15 K, 101 kPa, x1 = 0.6296	–	9.15
333.15 K, 101.3 kPa, x2 = 0.4	2.21	–
333.15 K, 101.3 kPa, x2 = 0.5	2.43	–
334.15 K, 101.3 kPa, x2 = 0.3636	2.15	–
334.15 K, 101.3 kPa, x2 = 0.4348	2.33	–
334.15 K, 101.3 kPa, x2 = 0.5263	1.94	–
334.15 K, 101.3 kPa, x2 = 0.5556	1.42	–
340.15 K, 101.3 kPa, x2 = 0.3333	2.29	–
340.15 K, 101.3 kPa, x2 = 0.4762	2.65	–
342.15 K, 101.3 kPa, x2 = 0.3636	2.45	–
342.65 K, 101.3 kPa, x2 = 0.4348	2.72	–
343.15 K, 101 kPa, x1 = 0.5834	–	8.63
343.15 K, 101.3 kPa, x2 = 0.4	2.62	–
343.65 K, 101.3 kPa, x2 = 0.5	2.92	–
344.15 K, 101.3 kPa, x2 = 0.5263	2.39	–
345.15 K, 101.3 kPa, x2 = 0.5556	1.81	–
347.15 K, 101.3 kPa, x2 = 0.3333	2.58	–
347.15 K, 101.3 kPa, x2 = 0.4762	3.04	–
350.15 K, 101.3 kPa, x2 = 0.3636	2.86	–
351.15 K, 101.3 kPa, x2 = 0.4348	3.15	–
351.65 K, 101.3 kPa, x2 = 0.4	3.02	–
351.65 K, 101.3 kPa, x2 = 0.5	3.33	–
352.15 K, 101.3 kPa, x2 = 0.5263	2.81	–
352.15 K, 101.3 kPa, x2 = 0.5556	2.12	–
358.15 K, 101.3 kPa, x2 = 0.3333	3	–
358.15 K, 101.3 kPa, x2 = 0.4762	3.59	–
360.15 K, 101.3 kPa, x2 = 0.3636	3.29	–
360.15 K, 101.3 kPa, x2 = 0.4348	3.59	–
361.15 K, 101.3 kPa, x2 = 0.4	3.46	–
361.15 K, 101.3 kPa, x2 = 0.5	3.86	–
361.65 K, 101.3 kPa, x2 = 0.5263	3.32	–
361.65 K, 101.3 kPa, x2 = 0.5556	2.56	–
367.15 K, 101.3 kPa, x2 = 0.3333	3.41	–
367.15 K, 101.3 kPa, x2 = 0.4762	4.14	–
370.15 K, 101.3 kPa, x2 = 0.3636	3.7	–
370.15 K, 101.3 kPa, x2 = 0.4348	4.08	–
370.15 K, 101.3 kPa, x2 = 0.5263	3.76	–
370.15 K, 101.3 kPa, x2 = 0.5556	2.97	–
371.15 K, 101.3 kPa, x2 = 0.4	3.96	–
371.15 K, 101.3 kPa, x2 = 0.5	4.49	–
379.15 K, 101.3 kPa, x2 = 0.3333	4.07	–
379.15 K, 101.3 kPa, x2 = 0.4762	4.87	–

Details	electrical conductivity [S/m]
306.15 K, 101 kPa, frequency 1 MHz, x2 = 0.625	0.227

CC[N+](C)(CC)CCOC.O=S(=O)([N-]S(=O)(=O)C(F)(F)F)C(F)(F)F + CCCCn1cc[n+](C)c1C.O=S(=O)([N-]S(=O)(=O)C(F)(F)F)C(F)(F)F
100 kPa
Details	electrical conductivity [S/m]
293.15 K, x1 = 0.2	0.192
293.15 K, x1 = 0.5	0.202
298.15 K, x1 = 0.2	0.256
313.15 K, x1 = 0.5	0.517
313.15 K, x1 = 0.7	0.527
318.15 K, x1 = 0.2	0.594
323.15 K, x1 = 0.7	0.755
328.15 K, x1 = 0.1	0.82
328.15 K, x1 = 0.3	0.845
328.15 K, x1 = 0.4	0.847
333.15 K, x1 = 0.6	0.999
343.15 K, x1 = 0.1	1.24
343.15 K, x1 = 0.2	1.24

CCCCCCCCn1cc[n+](C)c1.O=[N+]([O-])[O-] + CCCO
101 kPa
Details	viscosity [mPa·s]
288.15 K, x2 = 0.258	356
288.15 K, x2 = 0.556	52
293.15 K, x2 = 0.47	75.4
293.15 K, x2 = 0.556	42.1
293.15 K, x2 = 0.671	19.89
298.15 K, x2 = 0.866	5.08
303.15 K, x2 = 0.258	147
303.15 K, x2 = 0.364	78.7
308.15 K, x2 = 0.556	24.01
313.15 K, x2 = 0.47	32.9
313.15 K, x2 = 0.671	10.83
318.15 K, x2 = 0.258	65.9
318.15 K, x2 = 0.671	9.5
328.15 K, x2 = 0.556	11.56

CCOP(=O)([O-])OCC.CC[n+]1ccn(C)c1 + CCCO + O
100 kPa
Details	viscosity [mPa·s]
293.15 K, x2 = 0.347, x3 = 0.3491	90
303.15 K, x2 = 0.294, x3 = 0.304	78
313.15 K, x2 = 0.15, x3 = 0.1487	93
313.15 K, x2 = 0.199, x3 = 0.1954	76
323.15 K, x2 = 0.048, x3 = 0.0487	80

CCCCCCCCn1cc[n+](C)c1.F[B-](F)(F)F + CCCOC(C)=O
298.15 K, 101 kPa
Details	viscosity [mPa·s]
x2 = 0.3984	44.84
x2 = 0.4496	33.85
x2 = 0.5551	18.72

CCCCCCCCCCCCCC[P+](CCCCCC)(CCCCCC)CCCCCC.O=S(=O)([N-]S(=O)(=O)C(F)(F)F)C(F)(F)F + CCC[N+]1(C)CCCC1.O=S(=O)([N-]S(=O)(=O)C(F)(F)F)C(F)(F)F
Details	electrical conductivity [S/m]
293.15 K, 101 kPa, x1 = 1	0.00719

O=C1CCCO1 + CCC[N+]1(C)CCCC1.O=S(=O)([N-]S(=O)(=O)C(F)(F)F)C(F)(F)F
101 kPa, x2 = 0
Details	viscosity [mPa·s]
288.15 K	2.146
318.15 K	1.398
348.15 K	0.99

CCCCCCCCn1cc[n+](C)c1.F[B-](F)(F)F + CCO
Details	viscosity [mPa·s]
283.15 K, 101 kPa, x2 = 0.081	720

CCCCCCCCn1cc[n+](C)c1.O=[N+]([O-])[O-] + CCO
101 kPa
Details	viscosity [mPa·s]
283.15 K, x2 = 0.554	48.2
288.15 K, x2 = 0.357	162
288.15 K, x2 = 0.868	4.46
293.15 K, x2 = 0.455	59.7
293.15 K, x2 = 0.767	8.59
298.15 K, x2 = 0.767	7.54
303.15 K, x2 = 0.554	21.79
303.15 K, x2 = 0.767	6.47
313.15 K, x2 = 0.767	4.99
318.15 K, x2 = 0.128	112
318.15 K, x2 = 0.357	39.8
318.15 K, x2 = 0.455	21.77
328.15 K, x2 = 0.128	53.6
328.15 K, x2 = 0.357	23.9
328.15 K, x2 = 0.554	9.29
